Laboratory results published in patent US12220410B2, “Antitumor composition” (priority 2019, dated 2025).
Read-outs that look alike come from different tables or passages of the source.

Key:
[1] = tested on: human diffuse large B-cell lymphoma cell line OCI-Ly7; type: in vivo
[2] = tested on: human diffuse large B-cell lymphoma (DLBCL) cell line OCI-Ly7; assay: In vitro cell growth inhibition test, OCI-Ly7 (cell viability, combination index); type: cell-based; conditions: compound A 0 nM, OCI-Ly7
[3] = tested on: human follicular lymphoma cell line DOHH-2; assay: In vitro cell growth inhibition test (CellTiter-Fluor), DOHH-2; type: cell-based; conditions: for IC50: Homo sapiens, DOHH-2, 120 h; for FIC (fractional inhibitory concentration): DOHH-2
[4] = tested on: human diffuse large B-cell lymphoma cell line OCI-Ly7; type: in vivo; remark: listed apart in the source
[5] = tested on: human acute myelogenous leukemia (AML) cell line KG-1; type: in vivo
[6] = tested on: human acute myelogenous leukemia (AML) cell line KG-1; type: in vivo; remark: listed apart in the source
[7] = tested on: human breast cancer cell line MDA-MB-453; assay: In vivo antitumor effect test, MDA-MB-453 tumor, compound A and lapatinib (Example 37); design: species or system NOD-SCID mice
Procedure: The tumor volume was calculated from tumor diameters by the following formula: (Long diameter×[Short diameter]^2×0.5). Using the calculated tumor volume value, the relative tumor volume (ratio of the tumor volume on the day of measurement to the baseline tumor volume on Day 1) was calculated. […] Further, the tumor growth delay rate (% TGD) was calculated according to the following formula: % TGD={(T−C)/C}×100, Where: • T: […] relative tumor volume of the control group to reach 1600% 6) Statistical Analysis
Compound A was suspended in a 1% hypromellose solution to prepare 20 mg/mL test substance suspensions (a suspension for preparing a single administration solution and a suspension for preparing a 100 mg/kg combined administration solution). The 20 mg/mL test substance suspensions were diluted with a 1% hypromellose solution to prepare 10 mg/mL (100 mg/kg administration solution), 6 mg/mL (suspension for preparing a 30 mg/kg combined administration solution), and 3 mg/mL (30 mg/kg administration solution) test substance suspensions. Lapatinib was suspended in a 1% hypromellose solution to prepare a 20 mg/mL suspension for preparing a 100 mg/kg lapatinib combined administration solution. The 20 mg/mL suspension was diluted with a 1% hypromellose solution to prepare a 10 mg/mL suspension for 100 mg/kg single administration. The administration solution of the combination group was prepared by mixing the 6 mg/mL compound A suspension and the 20 mg/mL lapatinib suspension at 1:1, or mixing the 20 mg/mL compound A suspension and the 20 mg/mL lapatinib suspension at 1:1.
MDA-MB-453 was obtained from ATCC. […] The collected cells were suspended in serum-free RPMI 1640 medium at 1.0×10^8 cells/mL.
5-week-old female NOD-SCID mice (NOD.CB17-Prkdcscid/J, produced by Charles River Japan Co., Ltd.) were used. The female NOD-SCID mice were bred in the same manner as in Example 36. The cell suspension was inoculated at 2×10^7 cells/body into the subcutaneous space of the right axillary region of the 6-week-old NOD-SCID mice, and the mice were grouped in the same manner as in Example 36 using the tumor volume as an index.
The administration was started on the next day of the grouping (Day 2), and compound A and lapatinib were orally administered once a day for 28 consecutive days. Each group (N=8) was treated as follows. • (1) Control (solvent control) group: 1% hypromellose solution • (2) Compound A (30 mg/kg) treated group: 30 mg/kg of compound A (oral administration once a day for 28 consecutive days) • (3) Compound A (100 mg/kg) treated group: 100 mg/kg of compound A (oral administration once a day for 28 consecutive days) • (4) Lapatinib (100 mg/kg) treated group: 100 mg/kg of lapatinib (oral administration once a day for 28 consecutive days) • (5) Combination group 1: 30 mg/kg of compound A (oral administration once a day for 28 consecutive days)+100 mg/kg of lapatinib (oral administration once a day for 28 consecutive days) • (6) Combination group 2: 100 mg/kg of compound A (oral administration once a day for 28 consecutive days)+100 mg/kg of lapatinib (oral administration once a day for 28 consecutive days)

[8] = tested on: human diffuse large B-cell lymphoma cell line OCI-Ly7; type: in vivo; remark: listed apart in the source
[9] = bendamustine 15 mg/kg intraperitoneally on Days 2, 3, 4, 5, 6, relative tumor volume 1600%
[10] = cyclophosphamide 50 mg/kg intraperitoneally on Days 2, 5, 9, 12, relative tumor volume 1600%
[11] = lapatinib 100 mg/kg orally once a day for 28 days, relative tumor volume 200%
[12] = rituximab 10 mg/kg intraperitoneally on Days 2, 9, 16, relative tumor volume 600%

Cn1c(CCCC(=O)O)nc2cc(N(CCCl)CCCl)ccc21 [Bendamustine]
effectiveness of monotherapy (tumor growth delay) ([1]; 30 mg/kg of compound A, 15 mg/kg of bendamustine): effective
Median Time (time for relative tumor volume to reach 1600%) ([1]; bendamustine 15 mg/kg intraperitoneally on Days 2, 3, 4, 5, 6): 24.3 days
Tumor growth delay [1, 9]: 8.8 days
Tumor growth delay rate [1, 9]: 56.5%
Cell viability (ratio relative to the drug-free control) ([2]; bendamustine 1.25 nM): 0.93
Cell viability (ratio relative to the drug-free control) ([2]; bendamustine 2.5 nM): 0.87
Cell viability (ratio relative to the drug-free control) ([2]; bendamustine 5 nM): 0.66
Cell viability (ratio relative to the drug-free control) ([2]; bendamustine 10 nM): 0.29
IC50 ([3]; read-out: IC50 value of bendamustine in each concentration of compound A, compound A 0 nM (bendamustine alone), DOHH-2, 1000 cells/well, 120 hours): 9.87 µM
IC50 ([3]; read-out: IC50 value of bendamustine in each concentration of compound A, compound A 39.1 nM, DOHH-2, 120 hours): 5.59 µM
IC50 ([3]; read-out: IC50 value of bendamustine in each concentration of compound A, compound A 78.1 nM, DOHH-2, 120 hours): 2.96 µM
IC50 ([3]; read-out: IC50 value of bendamustine in each concentration of compound A, compound A 156.3 nM, DOHH-2, 120 hours): 1.5 µM
IC50 ([3]; read-out: IC50 value of bendamustine in each concentration of compound A, compound A 312.5 nM, DOHH-2, 120 hours): 0.0405 µM
FIC (fractional inhibitory concentration) ([3]; bendamustine fixed at 0 nM, compound A at its IC50): 0
FIC (fractional inhibitory concentration) ([3]; bendamustine fixed at 1250 nM, compound A at its IC50): 0.127
FIC (fractional inhibitory concentration) ([3]; bendamustine fixed at 2500 nM, compound A at its IC50): 0.253
FIC (fractional inhibitory concentration) ([3]; bendamustine fixed at 5000 nM, compound A at its IC50): 0.506
FIC (fractional inhibitory concentration) ([3]; compound A fixed at 0 nM, bendamustine at its IC50): 1
FIC (fractional inhibitory concentration) ([3]; compound A fixed at 39.1 nM, bendamustine at its IC50): 0.566
FIC (fractional inhibitory concentration) ([3]; compound A fixed at 78.1 nM, bendamustine at its IC50): 0.300
FIC (fractional inhibitory concentration) ([3]; compound A fixed at 156.3 nM, bendamustine at its IC50): 0.152
FIC (fractional inhibitory concentration) ([3]; compound A fixed at 312.5 nM, bendamustine at its IC50): 0.004

O=P1(N(CCCl)CCCl)NCCCO1 (centres unmarked) [Cyclophosphamide, reference compound]
effectiveness of monotherapy (tumor growth delay) ([4]; 30 or 100 mg/kg of compound A, 50 mg/kg of cyclophosphamide): effective
Median Time (time for relative tumor volume to reach 1600%) ([4]; cyclophosphamide 50 mg/kg intraperitoneally on Days 2, 5, 9, 12): 23.4 days
Tumor growth delay [4, 10]: 10.7 days
Tumor growth delay rate [4, 10]: 83.9%

Nc1ccn([C@@H]2O[C@H](CO)[C@@H](O)[C@@H]2O)c(=O)n1 [Cytarabine, reference compound]
antitumor effect on KG-1 tumor (monotherapy) ([5]; compound A 30 mg/kg, cytarabine 50 mg/kg): antitumor effect
T/C (ratio of relative tumor volume of treated group to control group) ([5]; cytarabine monotherapy 50 mg/kg intraperitoneally, 5-day administration and 2-day cessation, Day 16): 62.3%

Nc1ncn([C@H]2C[C@H](O)[C@@H](CO)O2)c(=O)n1 [Decitabine, 5-aza-2′-deoxycytidine, reference compound]
antitumor effect on KG-1 tumor (monotherapy) ([6]; compound A 30 mg/kg, decitabine 1 mg/kg): antitumor effect
T/C (ratio of relative tumor volume of treated group to control group) ([6]; decitabine monotherapy 1 mg/kg intraperitoneally, twice a week, Day 23): 27.7%

CS(=O)(=O)CCNCc1ccc(-c2ccc3ncnc(Nc4ccc(OCc5cccc(F)c5)c(Cl)c4)c3c2)o1 [Lapatinib, reference compound]
effectiveness of monotherapy (tumor growth delay) ([7]; 30 or 100 mg/kg of compound A, 100 mg/kg of lapatinib): effective
Median Time (time for relative tumor volume to reach 200%) ([7]; lapatinib 100 mg/kg orally once a day for 28 days): 34.2 days
Tumor growth delay [7, 11]: 11.4 days
Tumor growth delay rate [7, 11]: 50.0%

Rituximab: anti-CD20 antibody; Rituxan (trademark) 100 mg/10 mL, purchased from Genentech [reference compound]
effectiveness of monotherapy (tumor growth delay) ([8]; 30 mg/kg of compound A, 10 mg/kg of rituximab): effective
Median Time (time for relative tumor volume to reach 600%) ([8]; rituximab 10 mg/kg intraperitoneally on Days 2, 9, 16): 28.4 days
Tumor growth delay [8, 12]: 12.1 days
Tumor growth delay rate [8, 12]: 74.2%
